The values that follow come from patent publication US12350308B2, “Phosphorylcholine conjugates and uses thereof” (TPCERA LTD., priority 2013, dated 2025).

Each structure is given as a SMILES string. *1 amine or outer side, *2 acyl side, *3 side chain or, on linkers, in order; H or OH if unused. Where a SMILES comes first, the peptide text is derived from it. [ ]: non-standard residue; d: D form. X1 = C[N+](C)(C)CCOP(=O)([O-])Oc1ccc(N=Nc2cc(C[C@H](N[*:1])C(=O)[*:2])ccc2O)cc1

One assay relates to NZBxW/F1 lupus mice. Description: Circulating anti-dsDNA antibodies in lupus mice treated with TD-PC (ELISA). The conditions noted are these: sera at 30 weeks, dilution 1:800; between groups incl. PBS. Type of assay: in vivo. The method, then:
Titers of circulating anti-dsDNA antibodies in the sera of control and treated mice were monitored during the development of lupus, and their levels were measured every 3 weeks. […] FIG. 23 presents the anti dsDNA antibodies titers in the sera at the age 30 weeks at a dilution of 1:800.
For orientation: An ELISA detects its analyte on a solid surface through an enzyme-linked reagent.

Assay [1] deals with IL-10+CD25+CD1d+ Breg cells. Description: Breg expansion in splenocytes of mice with established CIA (FACS). It is filed as in vivo. The conditions noted are these: isolated splenocytes; PBS 0.4%. The method, then: The mean percentage of Breg cells in isolated splenocytes following treatment with TD-PC, PBS, TD (SEQ ID NO: 25), PC, TD+PC and None was measured within IL-10+CD25+CD1d+ subset. […] Representative data of IL-10+CD25+CD1d+ levels in splenocytes derived from TD-PC, PBS, TD (SEQ ID NO: 25), PC and TD+PC treated mice gating on IL-10+ B cells, are presented in FIG. 34A.

For `C[C@@H](O)[C@H](N)C(=O)N[C@@H](CCCCN)C(=O)N1CCC[C@H]1C(=O)N[C@@H](CCCNC(=N)N)C(=O)NCC(=O)N[C@@H](Cc1ccc(O)c(N=Nc2ccc(OP(=O)([O-])OCC[N+](C)(C)C)cc2)c1)C(=O)O` [TD-PC, Thr-Lys-Pro-Arg-Gly-Tyr-PC] (H-TKPRG[X1]-OH), in the assay on NZBxW/F1 lupus mice, the “titers of circulating anti-dsDNA antibodies” value was “No statistically significant change”. The “mean percentage of IL-10+CD25+CD1d+ Breg cells” value in assay [1] is 13.73%.
